Experimental data published in patent publication US8889875B2, “Pyridyl derivatives as CFTR modulators” (Vertex Pharmaceuticals Incorporated, priority 2008, dated 2014).

Biological target: T1, ΔF508-CFTR (Homo sapiens, UniProt P13569, DEL508-508)
T1 construct: expressed in transfected cells
Experiment: Membrane potential optical assay, identification of correction compounds (single-addition HTS format)
Type: cell-based
Details: PercentActivity; ΔF508-CFTR in NIH3T3 mouse fibroblasts; 16-24 hrs with compound; 10 μM forskolin and 20 μM genistein; read-out: BinnedMaxEfficacy
Excerpt: Membrane Potential Optical Methods for Assaying ΔF508-CFTR Modulation Properties of Compounds.
The assay utilizes fluorescent voltage sensing dyes to measure changes in membrane potential using a fluorescent plate reader (e.g., FLIPR III, Molecular Devices, Inc.) as a readout for increase in functional ΔF508-CFTR in NIH 3T3 cells. The driving force for the response is the creation of a chloride ion gradient in conjunction with channel activation by a single liquid addition step after the cells have previously been treated with compounds and subsequently loaded with a voltage sensing dye.
To identify small molecules that correct the trafficking defect associated with ΔF508-CFTR; a single-addition HTS assay format was developed. Assay Plates containing cells are incubated for ˜2-4 hours in tissue culture incubator at 37° C., 5% CO2, 90% humidity. Cells are then ready for compound exposure after adhering to the bottom of the assay plates.
The cells were incubated in serum-free medium for 16-24 hrs in tissue culture incubator at 37° C., 5% CO2, 90% humidity in the presence or absence (negative control) of test compound. The cells were subsequently rinsed 3× with Krebs Ringers solution and loaded with a voltage sensing redistribution dye. To activate ΔF508-CFTR, 10 μM forskolin and the CFTR potentiator, genistein (20 μM), were added along with Cl^−-free medium to each well. The addition of Cl^−-free medium promoted Cl^− efflux in response to ΔF508-CFTR activation and the resulting membrane depolarization was optically monitored using voltage sensor dyes.
Bath Solution #1: (in mM) NaCl 160, KCl 4.5, CaCl2 2, MgCl2 1, HEPES 10, pH 7.4 with NaOH.
Chloride-free bath solution: Chloride salts in Bath Solution #1 are substituted with gluconate salts.
NIH3T3 mouse fibroblasts stably expressing ΔF508-CFTR are used for optical measurements of membrane potential. The cells are maintained at 37° C. in 5% CO2 and 90% humidity in Dulbecco's modified Eagle's medium supplemented with 2 mM glutamine, 10% fetal bovine serum, 1×NEAA, β-ME, 1×pen/strep, and 25 mM HEPES in 175 cm^2 culture flasks. For all optical assays, the cells were seeded at ˜20,000/well in 384-well matrigel-coated plates and cultured for 2 hrs at 37° C. before culturing at 27° C. for 24 hrs. for the potentiator assay. For the correction assays, the cells are cultured at 27° C. or 37° C. with and without compounds for 16-24 hours.

T1 sequence (P13569 with tags, fused parts or gaps DEL508-508): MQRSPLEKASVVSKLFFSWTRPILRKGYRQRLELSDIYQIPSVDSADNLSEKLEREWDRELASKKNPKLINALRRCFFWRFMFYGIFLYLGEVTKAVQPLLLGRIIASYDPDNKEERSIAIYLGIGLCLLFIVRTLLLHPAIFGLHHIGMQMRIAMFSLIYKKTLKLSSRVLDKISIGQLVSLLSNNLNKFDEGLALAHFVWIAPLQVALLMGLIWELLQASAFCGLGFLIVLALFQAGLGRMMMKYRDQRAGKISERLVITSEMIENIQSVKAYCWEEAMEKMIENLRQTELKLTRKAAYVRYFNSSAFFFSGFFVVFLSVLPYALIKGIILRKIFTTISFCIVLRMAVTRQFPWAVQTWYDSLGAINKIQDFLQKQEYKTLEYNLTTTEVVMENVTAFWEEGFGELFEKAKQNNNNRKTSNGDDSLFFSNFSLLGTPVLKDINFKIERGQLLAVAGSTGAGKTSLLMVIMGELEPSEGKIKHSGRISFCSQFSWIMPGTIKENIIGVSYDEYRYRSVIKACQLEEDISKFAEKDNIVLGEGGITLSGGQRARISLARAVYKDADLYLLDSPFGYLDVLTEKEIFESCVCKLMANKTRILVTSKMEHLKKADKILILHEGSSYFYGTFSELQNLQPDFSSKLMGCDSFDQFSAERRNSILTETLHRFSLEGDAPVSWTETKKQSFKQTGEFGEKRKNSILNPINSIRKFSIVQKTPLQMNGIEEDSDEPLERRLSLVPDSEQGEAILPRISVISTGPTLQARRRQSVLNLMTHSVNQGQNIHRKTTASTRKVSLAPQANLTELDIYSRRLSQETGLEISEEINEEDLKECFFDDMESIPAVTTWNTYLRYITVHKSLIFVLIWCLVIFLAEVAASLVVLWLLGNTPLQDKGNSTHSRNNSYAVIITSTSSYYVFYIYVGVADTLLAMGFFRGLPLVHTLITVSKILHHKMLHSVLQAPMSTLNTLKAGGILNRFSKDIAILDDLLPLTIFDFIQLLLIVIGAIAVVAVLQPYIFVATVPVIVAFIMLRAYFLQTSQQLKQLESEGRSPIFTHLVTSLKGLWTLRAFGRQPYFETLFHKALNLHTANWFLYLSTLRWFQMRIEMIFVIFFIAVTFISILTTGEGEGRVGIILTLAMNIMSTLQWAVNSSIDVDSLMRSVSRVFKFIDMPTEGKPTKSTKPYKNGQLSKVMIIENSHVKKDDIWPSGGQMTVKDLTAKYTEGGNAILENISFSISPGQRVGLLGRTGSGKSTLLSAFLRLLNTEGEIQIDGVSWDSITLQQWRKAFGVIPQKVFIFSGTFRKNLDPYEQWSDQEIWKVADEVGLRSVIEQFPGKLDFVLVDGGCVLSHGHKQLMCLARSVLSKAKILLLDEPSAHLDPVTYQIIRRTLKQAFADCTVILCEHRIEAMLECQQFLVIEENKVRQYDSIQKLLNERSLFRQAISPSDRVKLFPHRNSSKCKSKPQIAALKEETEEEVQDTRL

Compound	Emax [%]
COc1ccccc1C(=O)c1ccc(NC(=O)C2(c3ccc(C)cc3)CC2)nc1 [Compound 70]	> 100
COc1ccc(C2(C(=O)Nc3ccc(Cc4ccccc4OC)cn3)CC2)cc1 [Compound 8]	25 to 100
COc1ccccc1C(c1ccc(NC(=O)C2(c3ccc4c(c3)OCO4)CC2)nc1)N1CCCC1 (stereo not shown) [Compound 9]	> 100
COc1ccccc1C(OCCCO)c1ccc(NC(=O)C2(c3ccc4c(c3)OCO4)CC2)nc1 (stereo not shown) [Compound 66]	> 100
COc1ccc(Cc2cccc(NC(=O)C3(c4ccc5c(c4)OCO5)CC3)n2)cc1 [Compound 3]	> 100
CCN(CC)C(c1ccc(NC(=O)C2(c3ccc4c(c3)OCO4)CC2)nc1)c1ccccc1OC (stereo not shown) [Compound 7]	> 100
O=C(c1ccccc1)c1ccc(NC(=O)C2(c3ccc4c(c3)OCO4)CC2)nc1 [Compound 14]	> 100
CCc1cccc(NC(=O)C2(c3ccccc3)CC2)n1 [Compound 61]	25 to 100
COc1ccc(C2(C(=O)Nc3ccc(C(=O)c4ccccc4OC)cn3)CC2)cc1OC [Compound 12]	25 to 100
Cc1ccccc1Cc1cccc(NC(=O)C2(c3ccc4c(c3)OCO4)CC2)n1 [Compound 5]	> 100
COc1ccccc1C(c1ccc(NC(=O)C2(c3ccc4c(c3)OCO4)CC2)nc1)N1CCCC1C(N)=O (stereo not shown) [Compound 45]	> 100
COc1ccccc1C(c1ccc(NC(=O)C2(c3ccc4c(c3)OCO4)CC2)nc1)N1CC(C)OC(C)C1 (stereo not shown) [Compound 23]	> 100
Cc1cnc(NC(=O)C2(c3ccc4c(c3)OC(F)(F)O4)CC2)cc1-c1cccc(C(=O)O)c1 [Compound 50]	25 to 100
CCCOC(c1ccc(NC(=O)C2(c3ccc4c(c3)OCO4)CC2)nc1)c1ccccc1OC (stereo not shown) [Compound 33]	> 100
O=C(Nc1ccc(Cc2ccccc2Cl)cn1)C1(c2ccc3c(c2)OCO3)CC1 [Compound 59]	> 100
CCc1cccc(NC(=O)C2(c3ccc4c(c3)OCO4)CC2)n1 [Compound 26]	> 100
O=C(Nc1ccc(Cc2ccccc2)cn1)C1(c2ccc3c(c2)OCO3)CC1 [Compound 63]	> 100
COc1ccccc1C(OCCO)c1ccc(NC(=O)C2(c3ccc4c(c3)OCO4)CC2)nc1 (stereo not shown) [Compound 57]	> 100
COc1ccccc1N(C)c1cccc(NC(=O)C2(c3ccc4c(c3)OCO4)CC2)n1 [Compound 74]	> 100
COC[C@@H]1CCCN1C(c1ccc(NC(=O)C2(c3ccc4c(c3)OCO4)CC2)nc1)c1ccccc1OC (stereo partly shown) [Compound 51]	> 100
CC(C)Cc1cccc(NC(=O)C2(c3ccc4c(c3)OCO4)CC2)n1 [Compound 56]	> 100

Compound	Emax [%]
COc1ccccc1Cc1ccc(NC(=O)C2(c3ccc(Cl)cc3)CC2)nc1 [Compound 46]	> 100
CCc1cccc(NC(=O)C2(c3ccc(OC)cc3)CC2)n1 [Compound 19]	25 to 100
CC(C)Cc1ccc(NC(=O)C2(c3ccc4c(c3)OCO4)CC2)nc1 [Compound 29]	> 100
CCc1ccnc(NC(=O)C2(c3ccc(OC)cc3)CC2)c1 [Compound 75]	25 to 100
CCN(C)C(c1ccc(NC(=O)C2(c3ccc4c(c3)OCO4)CC2)nc1)c1ccccc1OC (stereo not shown) [Compound 62]	> 100
Cc1ccc(NC(=O)C2(c3ccc4c(c3)OC(F)(F)O4)CC2)nc1NCc1ccccc1 [Compound 73]	> 100
Cc1cccc(NC(=O)C2(c3ccc4c(c3)OCO4)CC2)n1 [Compound 72]	> 100
COc1cccc(C2(C(=O)Nc3ccc(Cc4ccccc4OC)cn3)CC2)c1 [Compound 34]	25 to 100
NC(=O)c1ccc(NC(=O)C2(c3ccc4c(c3)OCO4)CC2)nc1 [Compound 6]	25 to 100
N#Cc1ccc(NC(=O)C2(c3ccc4c(c3)OCO4)CC2)nc1 [Compound 65]	25 to 100
CNC(c1ccc(NC(=O)C2(c3ccc4c(c3)OCO4)CC2)nc1)c1ccccc1OC (stereo not shown) [Compound 53]	> 100
COc1ccccc1C(c1ccc(NC(=O)C2(c3ccc4c(c3)OCO4)CC2)nc1)N1CCN(CCO)CC1 (stereo not shown) [Compound 39]	25 to 100
Cc1ccc(NC(=O)C2(c3ccc4c(c3)OCO4)CC2)nc1 [Compound 42]	> 100
O=C(Nc1ccc(Cc2c(Cl)cccc2Cl)cn1)C1(c2ccc3c(c2)OCO3)CC1 [Compound 24]	> 100
COc1ccc(C2(C(=O)Nc3ccc(C(=O)c4ccccc4OC)cn3)CC2)cc1 [Compound 28]	> 100
COc1ccccc1Cc1ccc(NC(=O)C2(c3ccccc3OC)CC2)nc1 [Compound 13]	25 to 100
COc1ccccc1C(=O)c1ccc(NC(=O)C2(c3ccc4c(c3)OC(F)(F)O4)CC2)nc1 [Compound 68]	> 100
COc1ccccc1C(OCCN1CCCCC1)c1ccc(NC(=O)C2(c3ccc4c(c3)OCO4)CC2)nc1 (stereo not shown) [Compound 71]	25 to 100
COc1ccccc1Cc1ccc(NC(=O)C2(c3ccc4c(c3)OCO4)CC2)nc1 [Compound 35]	> 100
COc1ccc(Cc2ccc(NC(=O)C3(c4ccc5c(c4)OCO5)CC3)nc2)cc1 [Compound 60]	> 100
O=C(Nc1cccc(Cc2ccccc2Cl)n1)C1(c2ccc3c(c2)OCO3)CC1 [Compound 78]	> 100

Compound	Emax [%]
COCC1CCCN1C(c1ccc(NC(=O)C2(c3ccc4c(c3)OCO4)CC2)nc1)c1ccccc1OC (stereo not shown) [Compound 36]	> 100
O=C(Nc1cccc(CC2CCCCC2)n1)C1(c2ccc3c(c2)OCO3)CC1 [Compound 67]	> 100
COc1ccccc1C(=O)c1ccc(NC(=O)C2(c3ccc(Cl)cc3)CC2)nc1 [Compound 76]	> 100
O=C(Nc1ncccc1OCc1ccccc1)C1(c2ccc3c(c2)OCO3)CC1 [Compound 48]	25 to 100
COc1ccccc1C(=O)c1ccc(NC(=O)C2(c3ccc(OC(F)(F)F)cc3)CC2)nc1 [Compound 30]	25 to 100
O=C(Nc1ccc(C(F)(F)F)cn1)C1(c2ccc3c(c2)OCO3)CC1 [Compound 17]	25 to 100
COc1ccccc1C(=O)c1ccc(NC(=O)C2(c3ccccc3OC)CC2)nc1 [Compound 1]	25 to 100
O=C(Nc1ccc(F)cn1)C1(c2ccc3c(c2)OCO3)CC1 [Compound 47]	> 100
Cc1ccc(NC(=O)C2(c3ccc4c(c3)OC(F)(F)O4)CC2)nc1 [Compound 40]	> 100
O=C(Nc1ccc(CC2CCCCC2)cn1)C1(c2ccc3c(c2)OCO3)CC1 [Compound 16]	> 100
COCCN1CCN(C(c2ccc(NC(=O)C3(c4ccc5c(c4)OCO5)CC3)nc2)c2ccccc2OC)CC1 (stereo not shown) [Compound 22]	25 to 100
COc1ccccc1C(c1ccc(NC(=O)C2(c3ccc4c(c3)OCO4)CC2)nc1)N1CCOCC1 (stereo not shown) [Compound 49]	> 100
O=C(Nc1ccccn1)C1(c2ccc3c(c2)OCO3)CC1 [Compound 69]	> 100
CCc1ccnc(NC(=O)C2(c3ccc4c(c3)OCO4)CC2)c1 [Compound 2]	> 100
CCc1ccc(C)nc1NC(=O)C1(c2ccc3c(c2)OCO3)CC1 [Compound 43]	25 to 100
Cc1ccnc(NC(=O)C2(c3ccc4c(c3)OCO4)CC2)c1 [Compound 21]	> 100
COc1ccccc1Cc1ccc(NC(=O)C2(c3ccc(OC)c(OC)c3)CC2)nc1 [Compound 10]	25 to 100
COc1ccccc1C(OCCN1CCOCC1)c1ccc(NC(=O)C2(c3ccc4c(c3)OCO4)CC2)nc1 (stereo not shown) [Compound 11]	> 100
COc1ccccc1C(=O)c1ccc(NC(=O)C2(c3ccc(SC)cc3)CC2)nc1 [Compound 37]	> 100
